Measured values published in patent publication US20070025986A1, “Modulation of HCN channels by second messengers” (priority 2003, published 2007).

Columns and labels:
HCN1 channel = experiment: Two microelectrode voltage clamp (2MEV) of HCN1 and HCN1 mutants expressed in Xenopus oocytes; assay type: cell-based, mouse; settings: for Effect on channel gating: wild type HCN1, 200 nM; for Effect on channel activation: HCN1-R538E, 30 μM, 60 minutes perfusion
[1] = tested on: DmHCN (HCN channel of Drosophila melanogaster); assay type: cell-based
HCN2 channel = settings: for Effect on channel gating: 200 nM
Description: Electrophysiology-General. Recordings were made in either IOP (excised cell-free inside out patch) or 2 MEV (two microelectrode voltage clamp) configurations from Xenopus oocytes 1-5 days after cRNA injection. In both configurations, the Ag—AgCl ground wire(s) were connected to the bath solution by 3M KCl-2% agar salt bridge electrodes placed downstream of, but close to, the oocyte. All recordings were obtained at room temperature (23-25° C.).
Electrophysiology-Two microelectrode voltage-clamp recordings. Data were acquired using a Warner Instruments (Hamden, Conn.) OC-725B amplifier, filtered at 1 kHz then digitized at 2 kHz using an ITC-18 interface and recorded with Pulse software (as described above). For most experiments, oocytes were bathed in a recording solution containing (in mM): 107 KCl, 5 NaCl, 10 HEPES (free acid), and 2 MgCl2, pH 7.4, with NaOH. However, to screen for poorly expressing constructs a recording solution containing (in mM): 112 KCl, 10 HEPES (free acid), and 2 MgCl2, pH 7.4, with KOH, was used to maximize the amplitude of the currents. Under these conditions, tail currents were recorded at the holding potential, −30 mV. The microelectrodes were filled with 3M KCl and had resistances of 0.1-0.5 MΩ (I passing) and 1-4 MΩ (V sensing). An active virtual ground was used to clamp the bath.
Analysis of electrophysiological recordings. “Steady-state” activation curves were determined from the amplitude of tail currents observed after hyperpolarizing voltage steps on return to the indicated potential. For IOP-clamp experiments, the holding potential and the tail potential was −40 mV. For 2 MEV-clamp experiments, the oocytes were held at −30 mV and the tail amplitudes measured at 0 mV. To avert any systematic bias of the determination of the V1/2 in a particular drug and clone combination, at least 10 cells from at least 5 donor frogs were routinely measured with recordings made across a number of weeks.
Tail current amplitudes were measured by averaging the current during the plateau of the tail after allowing the voltage-clamp to settle and the uncompensated linear capacitance to decay and subtracting from this the baseline current recorded 3s later. […] Current values were plotted versus the hyperpolarization step voltage and fitted with the Boltzmann equation: I(V=A1+A2/{1+exp[(V−V1/2)/s]}, where A1 is an offset caused by a nonzero holding current, A2 is the maximal tail current amplitude, V is voltage during the hyperpolarizing test pulse in millivolts, and V1/2 is the activation midpoint voltage. For each experiment, the tail current data were fitted with the above equation. To average the activation data from different experiments, the tail current amplitudes, I(V), from each individual experiment were normalized by first subtracting the derived A1 parameter and then dividing by A2. The normalized data at each voltage were then averaged, and the averaged data were fitted by the Boltzmann equation (with A1 set at 0 and A2 set at 1).

HCN4 channel = settings: for Effect on channel gating: 200 nM
plant channel KAT1 = settings: 200 nM 4βPMA
[2] = tested on: DAG concentration in Xenopus oocytes; settings: 60 minute incubation; cited from earlier work
[3] = tested on: HCN1 channel (wild type, CNBD-disabled and deletion constructs); experiment: Modulation of HCN1 activation gating by the PTK inhibitor genistein; assay type: cell-based, mouse
Description: (§1) The effect of PTK inhibitor genistein on HCN channel activation was studies using wild type and CNBD-disabled HCN channels. Recordings were made in the presence and absence of genistein.
(§2) Activation of wild type HCN channels and mutant HCN channels with mutation in the C-linker or CNBD domains was recorded in the presence and absence of PTK inhibitor genistein.
The results in FIG. 18B show the effect of genistein treatment to activation of HCN1-R538E, HCN1-ΔCNBD and HCN1-ΔCterm. Left Panel: Change in V1/2 (V1/2 Final−V1/2 Initial) in control and genistein treated cells (90 μM for 30 min).

[4] = tested on: HCN2 channel (wild type and CNBD-disabled); experiment: Modulation of HCN2 activation gating by the PTK inhibitor genistein; assay type: cell-based, mouse
Description: as §1, §2

For `CCCCCCCCCCCCCC(=O)O[C@@H]1[C@@H](C)[C@@]2(O)[C@@H](C=C(CO)C[C@@]3(O)C(=O)C(C)=C[C@@H]23)[C@@H]2C(C)(C)[C@]12OC(C)=O` [4αPMA], the “Effect on channel gating” value (HCN1 channel) was “unaffected”, the “Effect on channel gating” value [1] was “unaffected” and the “Effect on channel gating” value (HCN2 channel) was “unaffected”. The “Effect on channel gating” value (HCN4 channel) was “unaffected”.

With `CCCCCCCCCCCCCC(=O)O[C@@H]1[C@@H](C)[C@@]2(O)[C@@H](C=C(CO)C[C@]3(O)C(=O)C(C)=C[C@@H]23)[C@@H]2C(C)(C)[C@]12OC(C)=O` [4βPMA, 4-βphorbol-1 2myristate-13-acetate] the “ΔV½ CA UNCOUPLED” value (HCN1 channel; HCN1, 30 min in 200 nM 4βPMA) was “+29 ± 3”, the “ΔV½ CA UNCOUPLED H^+ UNCOUPLED” value (HCN1 channel; HCN1, 30 min in 200 nM 4βPMA) was “+32 ± 5” and the “ΔV½ WILD TYPE” value (HCN1 channel; HCN1, 30 min in 200 nM 4βPMA) was “+15 ± 3”. For the same molecule, the “4βPMA facilitation of gating in serine, threonine and tyrosine mutants” value (HCN1 channel; mutants of HCN1-ΔNvΔC, 200 nM 4βPMA, 30 minutes) was “not affected”, the “Effect on channel gating” value (HCN1 channel) was “facilitated” and the “Effect on channel gating” value [1] was “facilitated”. For the same molecule, the “ΔV½ WILD TYPE” value [1] was “+9 ± 4”, the “Effect on channel gating” value (HCN2 channel) was “facilitated” and the “ΔV½ CA UNCOUPLED” value (HCN2 channel; 30 min in 200 nM 4βPMA) was “+15 ± 2”. The “ΔV½ CA UNCOUPLED H^+ UNCOUPLED” value (HCN2 channel; 30 min in 200 nM 4βPMA) was “+26 ± 3”, the “ΔV½ WILD TYPE” value (HCN2 channel; 30 min in 200 nM 4βPMA) was “+8 ± 2” and the “Effect on channel gating” value (HCN4 channel) was “facilitated”. For the same molecule, the “ΔV½ WILD TYPE” value (HCN4 channel; 30 min in 200 nM 4βPMA) was “+17 ± 7” and the “Effect on channel activation” value (plant channel KAT1) was “insensitive”.

In the case of `Cc1nc2sccn2c(=O)c1CCN1CCC(=C(c2ccccc2)c2ccc(F)cc2)CC1` [R59022], the “Effect on channel activation” value (HCN1 channel) is given as “facilitates” and the “DAG concentration in Xenopus oocytes” value [2] is given as “double”.

For `O=c1c2ccccc2[nH]c(=S)n1CCN1CCC(=C(c2ccc(F)cc2)c2ccc(F)cc2)CC1` [R59949], the “Effect on channel activation” value (HCN1 channel) is listed as “facilitates” and the “DAG concentration in Xenopus oocytes” value [2] is listed as “double”.

With `O=c1c(-c2ccc(O)cc2)coc2cc(O)cc(O)c12` [genistein] the “Effect on activation curve” value ([3]; HCN1-R538E (CNBD disabled)) was “robust facilitation”, the “Genistein facilitation, Δ(ΔV1/2), compared with HCN1-R538E” value ([3]; HCN1-ΔCNBD, 90 μM for 30 min) was “the same” and the “Genistein sensitivity, Δ(ΔV1/2)” value ([3]; HCN1-ΔCterm (C-linker deleted), 90 μM for 30 min) was “insensitive”. The “Effect on activation curve” value ([3]; wild type HCN1) was “weak facilitation”, the “Effect on activation curve” value ([4]; HCN2-R591E (CNBD disabled)) was “facilitation” and the Genistein facilitation ([4]; cAMP insensitive HCN2 constructs) was “independent of the CNBD”. For the same molecule, the “Effect on activation curve” value ([4]; wild type HCN2) was “inhibition”.
